Measurements from ChEMBL document CHEMBL2086231, “Novel pleuromutilin derivatives as antibacterial agents: synthesis, biological evaluation and molecular docking studies” (2012).
Converted amounts (≈) assume the structure as drawn. Blank lines part the entries; values can stand above or below the compound they belong to.

What was measured:
Assay type in all cases: functional
[1] = system: Brachyspira pilosicoli; assay: Antibacterial activity against Brachyspira pilosicoli
[2] = system: Staphylococcus aureus; assay: Ratio of amoxicillin MIC to compound MIC for methicillin-resistant Staphylococcus aureus isolate cpu3256
[3] = system: Staphylococcus aureus; assay: Antibacterial activity against methicillin-sensitive Staphylococcus aureus isolate cpu1044 after 18 to 20 hrs by agar dilution method
[4] = system: Staphylococcus epidermidis; assay: Antibacterial activity against methicillin-resistant Staphylococcus epidermidis isolate cpu3569 after 18 to 20 hrs by agar dilution method
[5] = system: Staphylococcus epidermidis; assay: Antibacterial activity against methicillin-resistant Staphylococcus epidermidis isolate cpu2623 after 18 to 20 hrs by agar dilution method
[6] = system: Staphylococcus aureus; assay: Antibacterial activity against methicillin-sensitive Staphylococcus aureus isolate cpu0587 after 18 to 20 hrs by agar dilution method
[7] = system: Staphylococcus epidermidis; assay: Antibacterial activity against methicillin-sensitive Staphylococcus epidermidis isolate cpu2089 after 18 to 20 hrs by agar dilution method
[8] = system: Staphylococcus aureus; assay: Antibacterial activity against methicillin-sensitive Staphylococcus aureus isolate cpu0211 after 18 to 20 hrs by agar dilution method
[9] = system: Staphylococcus aureus; assay: Antibacterial activity against methicillin-resistant Staphylococcus aureus isolate cpu0887 after 18 to 20 hrs by agar dilution method
[10] = system: Staphylococcus aureus; assay: Ratio of amoxicillin MIC to compound MIC for methicillin-resistant Staphylococcus aureus isolate cpu0446
[11] = system: Staphylococcus aureus; assay: Ratio of tiamulin MIC to compound MIC for methicillin-resistant Staphylococcus aureus isolate cpu0887
[12] = system: Staphylococcus aureus; assay: Antibacterial activity against methicillin-resistant Staphylococcus aureus isolate cpu1098 after 18 to 20 hrs by agar dilution method
[13] = system: Staphylococcus epidermidis; assay: Antibacterial activity against methicillin-resistant Staphylococcus epidermidis isolate cpu3889 after 18 to 20 hrs by agar dilution method
[14] = system: Staphylococcus aureus; assay: Ratio of tiamulin MIC to compound MIC for methicillin-resistant Staphylococcus aureus isolate cpu0446
[15] = system: Staphylococcus aureus; assay: Antibacterial activity against methicillin-resistant Staphylococcus aureus isolate cpu0446 after 18 to 20 hrs by agar dilution method
[16] = system: Staphylococcus aureus; assay: Antibacterial activity against methicillin-resistant Staphylococcus aureus isolate cpu3256 after 18 to 20 hrs by agar dilution method
[17] = system: Staphylococcus aureus; assay: Ratio of tiamulin MIC to compound MIC for methicillin-resistant Staphylococcus aureus isolate cpu1098
[18] = system: Staphylococcus aureus; assay: Antibacterial activity against methicillin-sensitive Staphylococcus aureus isolate cpu1344 after 18 to 20 hrs by agar dilution method
[19] = system: Staphylococcus aureus; assay: Ratio of amoxicillin MIC to compound MIC for methicillin-resistant Staphylococcus aureus isolate cpu0887
[20] = system: Staphylococcus epidermidis; assay: Antibacterial activity against methicillin-sensitive Staphylococcus epidermidis isolate cpu1561 after 18 to 20 hrs by agar dilution method
[21] = system: Staphylococcus epidermidis; assay: Antibacterial activity against methicillin-resistant Staphylococcus epidermidis isolate cpu2736 after 18 to 20 hrs by agar dilution method
[22] = system: Staphylococcus aureus; assay: Ratio of tiamulin MIC to compound MIC for methicillin-resistant Staphylococcus aureus isolate cpu3256
[23] = system: Staphylococcus epidermidis; assay: Antibacterial activity against methicillin-sensitive Staphylococcus epidermidis isolate cpu0347 after 18 to 20 hrs by agar dilution method
[24] = system: Staphylococcus aureus; assay: Ratio of amoxicillin MIC to compound MIC for methicillin-resistant Staphylococcus aureus isolate cpu1098
[25] = system: Staphylococcus epidermidis; assay: Antibacterial activity against methicillin-sensitive Staphylococcus epidermidis isolate cpu0315 after 18 to 20 hrs by agar dilution method
[26] = system: Staphylococcus aureus; assay: Antibacterial activity against Staphylococcus aureus
[27] = system: Streptococcus pyogenes; assay: Antibacterial activity against Streptococcus pyogenes
[28] = system: Staphylococcus aureus; assay: Ratio of amoxicillin MIC to compound MIC for methicillin-sensitive Staphylococcus aureus isolate cpu0587
[29] = system: Staphylococcus aureus; assay: Ratio of amoxicillin MIC to compound MIC for methicillin-sensitive Staphylococcus aureus isolate cpu1344
[30] = system: Staphylococcus epidermidis; assay: Ratio of amoxicillin MIC to compound MIC for methicillin-sensitive Staphylococcus epidermidis isolate cpu1561
[31] = system: Staphylococcus epidermidis; assay: Ratio of amoxicillin MIC to compound MIC for methicillin-sensitive Staphylococcus epidermidis isolate cpu0347
[32] = system: Staphylococcus epidermidis; assay: Ratio of amoxicillin MIC to compound MIC for methicillin-sensitive Staphylococcus epidermidis isolate cpu0315
[33] = system: Staphylococcus epidermidis; assay: Ratio of amoxicillin MIC to compound MIC for methicillin-sensitive Staphylococcus epidermidis isolate cpu2089
[34] = system: Staphylococcus aureus; assay: Ratio of amoxicillin MIC to compound MIC for methicillin-sensitive Staphylococcus aureus isolate cpu0211
[35] = system: Staphylococcus aureus; assay: Ratio of amoxicillin MIC to compound MIC for methicillin-sensitive Staphylococcus aureus isolate cpu1044

MIC [1]: 0.03 µg/mL (≈ 0.0531 µM)
Structure (SMILES): C=C[C@]1(C)C[C@@H](OC(=O)CSC(C)(C)CNC(=O)[C@H](N)C(C)C)[C@]2(C)[C@H](C)CC[C@]3(CCC(=O)[C@H]32)[C@@H](C)[C@@H]1O [VALNEMULIN]

Structure (SMILES): C=C[C@]1(C)C[C@@H](OC(=O)CSCc2csc(N)n2)[C@]2(C)[C@H](C)CC[C@]3(CCC(=O)[C@H]32)[C@@H](C)[C@@H]1O
Ratio [2]: 4
MIC [3]: 2 µg/mL (≈ 3.95 µM)
MIC [4]: 0.125 µg/mL (≈ 0.247 µM)
MIC [5]: 0.125 µg/mL (≈ 0.247 µM)
MIC [6]: 2 µg/mL (≈ 3.95 µM)
MIC [7]: 0.125 µg/mL (≈ 0.247 µM)
MIC [8]: 0.5 µg/mL (≈ 0.987 µM)
MIC [9]: 0.0625 µg/mL (≈ 0.123 µM)
Ratio [10]: 4
Ratio [11]: 4
MIC [12]: 0.5 µg/mL (≈ 0.987 µM)
MIC [13]: 0.125 µg/mL (≈ 0.247 µM)
Ratio [14]: 4
MIC [15]: 0.25 µg/mL (≈ 0.493 µM)
MIC [16]: 0.5 µg/mL (≈ 0.987 µM)
Ratio [17]: 4
MIC [18]: 0.125 µg/mL (≈ 0.247 µM)
Ratio [19]: 4
MIC [20]: 0.125 µg/mL (≈ 0.247 µM)
MIC [21]: 0.125 µg/mL (≈ 0.247 µM)
Ratio [22]: 4
MIC [23]: 0.125 µg/mL (≈ 0.247 µM)
Ratio [24]: 4
MIC [25]: 0.125 µg/mL (≈ 0.247 µM)

Structure (SMILES): C=C[C@]1(C)C[C@@H](OC(=O)CS[C@@H]2C[C@H]3CC[C@@H](C2)N3C)[C@]2(C)[C@H](C)CC[C@]3(CCC(=O)[C@H]32)[C@@H](C)[C@@H]1O [RETAPAMULIN]
MIC [26]: 0.12 µg/mL (≈ 0.232 µM)
MIC [27]: 0.016 µg/mL (≈ 0.0309 µM)

Structure (SMILES): C=C[C@]1(C)C[C@@H](OC(=O)CSCc2csc(NC(=O)CN3CCCCC3)n2)[C@]2(C)[C@H](C)CC[C@]3(CCC(=O)[C@H]32)[C@@H](C)[C@@H]1O
MIC [3]: 0.125 µg/mL (≈ 0.198 µM)
MIC [4]: 0.0625 µg/mL (≈ 0.0989 µM)
Ratio [28]: 8
MIC [5]: 0.0625 µg/mL (≈ 0.0989 µM)
MIC [6]: 2 µg/mL (≈ 3.17 µM)
MIC [7]: 0.125 µg/mL (≈ 0.198 µM)
MIC [8]: 0.125 µg/mL (≈ 0.198 µM)
Ratio [29]: 8
MIC [9]: 0.0625 µg/mL (≈ 0.0989 µM)
Ratio [30]: 8
Ratio [31]: 8
Ratio [32]: 8
MIC [12]: 0.25 µg/mL (≈ 0.396 µM)
Ratio [33]: 8
MIC [13]: 0.0625 µg/mL (≈ 0.0989 µM)
MIC [15]: 0.5 µg/mL (≈ 0.791 µM)
MIC [16]: 0.25 µg/mL (≈ 0.396 µM)
Ratio [34]: 8
MIC [18]: 0.0625 µg/mL (≈ 0.0989 µM)
Ratio [35]: 8
MIC [20]: 0.0625 µg/mL (≈ 0.0989 µM)
MIC [21]: 0.0625 µg/mL (≈ 0.0989 µM)
MIC [23]: 0.0625 µg/mL (≈ 0.0989 µM)
MIC [25]: 0.0625 µg/mL (≈ 0.0989 µM)

Structure (SMILES): C=C[C@]1(C)C[C@@H](OC(=O)CSCc2csc(NC(=O)CN(CCC)CCC)n2)[C@]2(C)[C@H](C)CC[C@]3(CCC(=O)[C@H]32)[C@@H](C)[C@@H]1O
MIC [3]: 0.5 µg/mL (≈ 0.772 µM)
MIC [4]: 4 µg/mL (≈ 6.17 µM)
MIC [5]: 0.5 µg/mL (≈ 0.772 µM)
MIC [6]: 0.5 µg/mL (≈ 0.772 µM)
MIC [7]: 0.5 µg/mL (≈ 0.772 µM)
MIC [8]: 0.5 µg/mL (≈ 0.772 µM)
MIC [9]: 0.5 µg/mL (≈ 0.772 µM)
MIC [12]: 1 µg/mL (≈ 1.54 µM)
MIC [13]: 2 µg/mL (≈ 3.09 µM)
MIC [15]: 0.5 µg/mL (≈ 0.772 µM)
MIC [16]: 1 µg/mL (≈ 1.54 µM)
MIC [18]: 1 µg/mL (≈ 1.54 µM)
MIC [20]: 4 µg/mL (≈ 6.17 µM)
MIC [21]: 2 µg/mL (≈ 3.09 µM)
MIC [23]: 0.5 µg/mL (≈ 0.772 µM)
MIC [25]: 8 µg/mL (≈ 12.3 µM)

Structure (SMILES): CC1(C)S[C@@H]2[C@H](NC(=O)[C@H](N)c3ccc(O)cc3)C(=O)N2[C@H]1C(=O)O [AMOXICILLIN]
MIC [3]: 1 µg/mL (≈ 2.74 µM)
MIC [4]: 8 µg/mL (≈ 21.9 µM)
MIC [5]: 8 µg/mL (≈ 21.9 µM)
MIC [6]: 2 µg/mL (≈ 5.47 µM)
MIC [7]: 0.125 µg/mL (≈ 0.342 µM)
MIC [8]: 4 µg/mL (≈ 10.9 µM)
MIC [9]: 0.125 µg/mL (≈ 0.342 µM)
MIC [12]: 4 µg/mL (≈ 10.9 µM)
MIC [13]: 8 µg/mL (≈ 21.9 µM)
MIC [15]: 4 µg/mL (≈ 10.9 µM)
MIC [16]: 8 µg/mL (≈ 21.9 µM)
MIC [18]: 1 µg/mL (≈ 2.74 µM)
MIC [20]: 0.125 µg/mL (≈ 0.342 µM)
MIC [21]: 0.125 µg/mL (≈ 0.342 µM)
MIC [23]: 8 µg/mL (≈ 21.9 µM)
MIC [25]: 0.125 µg/mL (≈ 0.342 µM)
